Measurements reported in US8389739B1, “Modulators of retinoid-related orphan receptor gamma” (Orphagen Pharmaceuticals, priority 2006, dated 2013).

Tests used:
hPPARδ = target: T1, hPPARδ (Homo sapiens, UniProt Q03181); test: Crossreactive receptor transcriptional assay (Gal4 hybrid); type: cell-based
T1 construct: 138-441; expressed in transfected cells; host or cells: CHO cells, transient transfection
T1 sequence (Q03181 138-441): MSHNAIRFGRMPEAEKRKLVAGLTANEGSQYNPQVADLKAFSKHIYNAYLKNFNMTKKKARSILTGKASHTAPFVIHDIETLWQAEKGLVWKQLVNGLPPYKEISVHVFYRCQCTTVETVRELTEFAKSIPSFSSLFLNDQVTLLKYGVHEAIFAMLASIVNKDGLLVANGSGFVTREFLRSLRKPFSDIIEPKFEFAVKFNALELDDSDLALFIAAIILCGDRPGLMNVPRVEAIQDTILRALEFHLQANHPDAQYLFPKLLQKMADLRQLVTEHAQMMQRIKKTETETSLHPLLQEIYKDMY
Experimental: (§1) A firefly luciferase reporter gene for Gal4 DBD hybrid receptors, such as Gal4-RORγ, contains five copies of the Gal4 17-mer response element in its promoter and the coding sequence for firefly luciferase (pG5-luc, Promega). CHO (Chinese Hamster Ovary) cells were cultured in Ham's F12 medium supplemented with 10% fetal calf serum (Gemini Biologicals), 10 μg/ml penicillin and streptomycin, and were maintained in a humidified 37° C. incubator (Thermo Electron, Steri-Cycle) with 5% CO2. 24 hours before transfection, cells were plated in T175 flasks (5×10^6 cells/flask) or T75 flasks (1.7×10^6 cells/flask). Transient transfection of CHO cells was performed using TransIT-CHO reagents (Minis, Madison, Wis.) with a mixing ratio of 2:6:1 between plasmid DNA (in μg), TransIT-CHO (in μl) and CHO-mojo (in μl).
(§2) Plates are maintained at 37° C. in a humidified atmosphere with 7% CO2 overnight. Four (4) hours after cell seeding, compounds dissolved in DMSO at 10 mM were added to cells at final concentrations of 20 micromolar (μM) to 20 nanomolar (nM) in 0.2% DMSO in triplicate plates. Approximately 40 hours later, cytotoxicity in the assay well was characterized by addition of the dye resazurin (O'Brien, Wilson et al. 2000) to a final concentration of 3 μM. […] Percent viability was determined as 2 hour fluorescence, minus background at t=0 hours, normalized to DMSO controls. For detection of luciferase activity, media was removed from plates after the measurement of resazurin conversion, and SteadyLite luciferase reagent (Perkin-Elmer) was added (30 μl/well). Luminescence is detected with a Victor 2-V plate reader (Perkin-Elmer) and normalized to luciferase activity of DMSO control wells alone.

liver triglycerides = test: Liver triglycerides after oral dosing in C57BL/6 mice; type: in vivo; conditions: Dex 12.5 mg/kg once 2 days before necropsy
Experimental: […] A small piece of the liver (˜200 mg) was weighed and extracted to determine triglyceride content. Glycerol was liberated from liver triglycerides by hydrolysis in base. The liver fragment was incubated overnight at 55° C. in 0.35 mls of ethanolic KOH (2 parts EtOH: 1 part 30% KOH) in a closed tube. A solution of 50% ethanol in water was added to bring the volume of each tube to 1.0 ml. The solution was cleared of debris by centrifugation, and the resulting supernatant increased to 1.2 ml with further addition of 50% ethanol. Aqueous 1 M MgCl2 (215 μl) was added to 200 μl of the supernatant, and the mixture was cleared by centrifugation again after standing 10 min on ice. Glycerol levels were measured with the Sigma Free Glycerol Reagent (Sigma-Aldrich, St. Louis, Mo.) according to the manufacturer's instructions. The triglyceride concentration (in milligrams per gram of liver wet weight) was determined by assuming average molecular weight of 1000 daltons for each molecule of triglyceride.

thymocytes = test: Thymus weight and thymocyte subpopulations after oral dosing in C57BL/6 mice; type: in vivo
Experimental: In addition, the total number and the fraction of the major thymocyte subpopulations including CD4^+CD8^+ (DP), CD4^+CD8^- (SP4^+) and CD4^-CD8^+ (SP8^+) were measured by cell surface staining followed by FACS analysis. […] The volume of cells was adjusted to 8 mls. Debris from the thymus was allowed to settle, and a 200 μl aliquot of cells was incubated with fluorescent antibodies to CD4 and CD8 for 15 minutes at room temperature. […] Before analytical flow cytometry was carried out (FACS Calibur, Becton Dickinson), Caltag counting beads (from Invitrogen) were added to allow absolute quantitation of cell number. Thymus subpopulations were determined after gating for live cells. […] Dexamethasone reproducibly induces rapid apoptosis of DP thymocytes and reduction of thymic mass ([…], Drupt et al. 2000; Zubkova, Mostowski et al. 2005).

hPPARα = target: T2, hPPARα (Homo sapiens, UniProt Q07869); test: Crossreactive receptor transcriptional assay (Gal4 hybrid); type: cell-based; conditions: activity of standard ligand at 20 μM
T2 construct: 166-468; expressed in transfected cells; host or cells: CHO cells, transient transfection
T2 sequence (Q07869 166-468): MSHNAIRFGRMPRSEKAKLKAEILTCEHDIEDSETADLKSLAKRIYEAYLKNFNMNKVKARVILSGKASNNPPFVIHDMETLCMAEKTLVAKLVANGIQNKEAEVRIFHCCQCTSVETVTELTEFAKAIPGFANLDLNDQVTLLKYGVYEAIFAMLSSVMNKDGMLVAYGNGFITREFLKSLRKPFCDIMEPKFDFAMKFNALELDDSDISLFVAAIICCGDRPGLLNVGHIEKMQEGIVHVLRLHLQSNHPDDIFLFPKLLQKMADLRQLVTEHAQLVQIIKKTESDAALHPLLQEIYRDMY
Experimental: as §1, §2

[1] = test system: TH1 cell differentiation from naïve CD4+ T cells; test: Differentiation of naïve CD4+ T cells with IL-12 (Th-1 protocol), IFN-γ staining by FACS; type: cell-based, mouse; conditions: Table 8; 10 ng/ml; naïve CD4 cells, 5 days; mean ±SD; no cytokine 0.21
[2] = Dex 12.5 mg/kg once 2 days before necropsy

With CC(C)(Oc1ccc(CCNC(=O)c2ccc(Cl)cc2)cc1)C(=O)O [Bezafibrate, bezafibrate, reference compound] the EC50 (hPPARδ) was greater than 20 µM.

For C[C@@H]1C[C@H]2[C@@H]3CCC4=CC(=O)C=C[C@]4(C)[C@@]3(F)[C@@H](O)C[C@]2(C)[C@@]1(O)C(=O)CO [Dexamethasone, dexamethasone], the “Liver triglycerides” value (liver triglycerides) was 35.3 ± 8.2 mg/g, the “Frequency of DP (% of total cells)” value (thymocytes; [2]) was 4.2 ± 2.9% and the “Thymus weight” value (thymocytes; [2]) was 49.7 µg. The “Total cells per thymus (×10^−6) DP” value (thymocytes; [2]) was 1.0 ×10^−6, the “Total cells per thymus (×10^−6) SP4” value (thymocytes; [2]) was 3.9 ×10^−6 and the “Total cells per thymus (×10^−6) SP8” value (thymocytes; [2]) was 1.2 ×10^−6. The “effect on DP thymocytes, in words” value (thymocytes; dexamethasone positive control, once two days before sacrifice) was “virtually total depletion of DP thymocytes”.

Cc1cccc(Nc2cc(Cl)nc(SCC(=O)O)n2)c1C [WY14643, reference compound] was tested, and the “Efficacy at hPPARα” value (hPPARα) was 6X.

B1: IL-12: exogenous cytokine, stimulates TH1 differentiation (protein, UniProt P29459 23-219; P29460 23-328, looked up)
Interleukin-12 subunit alpha: RNLPVATPDPGMFPCLHHSQNLLRAVSNMLQKARQTLEFYPCTSEEIDHEDITKDKTSTVEACLPLELTKNESCLNSRETSFITNGSCLASRKTSFMMALCLSSIYEDLKMYQVEFKTMNAKLLMDPKRQIFLDQNMLAVIDELMQALNFNSETVPQKSSLEEPDFYKTKIKLCILLHAFRIRAVTIDRVMSYLNAS
Interleukin-12 subunit beta: IWELKKDVYVVELDWYPDAPGEMVVLTCDTPEEDGITWTLDQSSEVLGSGKTLTIQVKEFGDAGQYTCHKGGEVLSHSLLLLHKKEDGIWSTDILKDQKEPKNKTFLRCEAKNYSGRFTCWWLTTISTDLTFSVKSSRGSSDPQGVTCGAATLSAERVRGDNKEYEYSVECQEDSACPAAEESLPIEVMVDAVHKLKYENYTSSFFIRDIIKPDPPKNLQLKPLKNSRQVEVSWEYPDTWSTPHSYFSLTFCVQVQGKSKREKKDRVFTDKTSATVICRKNASISVRAQDRYYSSSWSEWASVPCS
With B1 the “IL-17 (%)” value [1] was 0.09 ± 0.01%.
